{"source": "a melting point compilation (Tetko et al.; mined from patent text by program, amines drawn as free bases though some values may be those of a salt)"}
{"units": {"melting point": "°C"}}
{"compound": "Cc1ccc(-c2ccc(C(=O)Nc3ccc4cc(CN5C(C)(C)CCCC5(C)C)ccc4c3)cc2)cc1", "melting point": "235 to 237"}
{"compound": "CC(C)c1ccn2nc(S(=O)(=O)Cl)nc2n1", "melting point": "60 to 62"}
{"compound": "CCOC(=O)COc1cccc(-c2nc3ncccc3[nH]2)c1", "melting point": 158}
{"compound": "Oc1ccc2c(c1CNc1ccccc1)CCCO2", "melting point": "105 to 107"}
{"compound": "CCN(CC)CCN1c2ccccc2N(C)C(=O)c2ccc(C)nc21", "melting point": "91 to 93"}
{"compound": "CC(c1oc2ccc(Br)cc2c(=O)c1-c1ccccc1F)n1cnc2c(N)ncnc21", "note": "(centres undefined)", "melting point": "256 to 258"}
{"compound": "CN(C)C(CN1CCN(c2ccc(F)cc2)CC1)CN1c2cccc3cccc(c23)S1(=O)=O", "note": "(centres undefined)", "melting point": 118}
{"compound": "C=CCOC(=O)c1ccc(O)c(C23CC4CC(CC(C4)C2)C3)c1F", "melting point": "219 to 222"}
{"compound": "CC(C)(C)OC(=O)N1Cc2c(Br)sc(Br)c2C1", "melting point": "144 to 145"}
{"compound": "CN1C(=O)N(c2cc(Cl)cc(Cl)c2)C(=O)/C1=C\\c1ccc(C#N)cc1", "melting point": "239 to 241"}
{"compound": "O=C(O)c1ccccc1SSc1ccc([N+](=O)[O-])cc1C(Cl)(Cl)Cl", "melting point": 224}
{"compound": "COC(=O)c1sc(-c2ccccc2)c(Br)c1O", "melting point": "85 to 87"}
{"compound": "COc1cc2c(Nc3ccc(Cl)cc3F)ncnc2cc1OCCCC(=O)N1CCOCC1", "melting point": "216 to 217"}
{"compound": "Cc1c(F)c(F)cc(F)c1C(=O)O", "melting point": "104 to 105"}
{"compound": "CCCCCCC(=O)CC(C)=O", "melting point": "105 to 106"}
{"compound": "CC(C)(C)OC(=O)N1CCC(C(=O)O)(C2CCCCC2)CC1", "melting point": 156}
{"compound": "COC(c1nnc2n1-c1ccc(Cl)cc1C(c1ccccc1)=NC2)C1COC(C)(C)O1", "note": "(centres undefined)", "melting point": "130 to 134"}
{"compound": "O=[N+]([O-])c1cc(C=Cc2ccncc2)cc(O)c1O", "melting point": "> 350"}
{"compound": "CS(=O)(=O)N1CCS(=O)c2ccccc2C1", "note": "(centres undefined)", "melting point": "195 to 197"}
{"compound": "O=C(CCCO)NCC1c2ccccc2CCc2ccccc21", "melting point": "98 to 99"}
{"compound": "CC(=O)C(C)(C)N1COC(C)=C(c2ccccc2)C1=O", "melting point": "118 to 119"}
{"compound": "O=C(c1ccc(C(F)(F)F)cc1O)N1CCN(c2ccc(OC[C@H]3CCn4cc([N+](=O)[O-])nc4O3)cc2)CC1", "melting point": "217 to 220"}
{"compound": "Cc1ccc(-c2cc(C(=O)O)nn2Cc2ccc(F)cc2)cc1C", "melting point": 141}
{"compound": "COc1cccc(Nc2nc(-c3ccccc3)c(C(=O)c3sc(Nc4cccc(OC)c4)nc3-c3ccccc3)s2)c1", "melting point": "> 285"}
{"compound": "O=C1CCc2c(Br)cc(F)cc21", "melting point": "129 to 131"}
{"compound": "CCCCCNC12CN3CN(CN(C3)C1)C2", "melting point": "119 to 120"}
{"compound": "O=C(NCCCCSc1ccncc1)c1ccccc1CO", "melting point": "87 to 88"}
{"compound": "CC(C)(C)OC(=O)Nc1ccc(-c2ncn(-c3ccc(OC(F)(F)C(F)(F)F)cc3)n2)cc1", "melting point": "205 to 209"}
{"compound": "CN(C)c1cc(=S)ss1", "melting point": 193}
{"compound": "CCOc1ccc2c(c1)n(C1CCCCC1)c(=O)n2Cc1ccc(-n2cccc2)cc1OC", "melting point": 115}
{"compound": "CCCCc1nc2c(N)nc3ccccc3c2n1CCCCS(=O)(=O)c1ccccc1", "melting point": "179 to 180"}
{"compound": "COC(=O)c1ccc(CN2C(=O)C3(COc4cc5c(cc43)CCO5)c3ccccc32)cc1", "note": "(centres undefined)", "melting point": "136 to 140"}
{"compound": "COc1ccc(/C=C/c2cc(/C=C/c3ccc4cc[nH]c4c3)n[nH]2)cc1OCc1ccccn1", "melting point": "110 to 117"}
{"compound": "CCCCCCOc1ccc(CBr)c2c(OCCCCCC)ccc(CBr)c12", "melting point": "105 to 107"}
{"compound": "CCOC(=O)C(=Nc1ccc(OC)cc1)c1cccn1C", "melting point": "83 to 85"}
{"compound": "COC(=O)CCCOc1cc([N+](=O)[O-])c(CO)cc1OC", "melting point": 100}
{"compound": "CN(C)CCc1c[nH]c2ccc(Oc3ccc(Br)cc3)cc12", "melting point": "160 to 162"}
{"compound": "CC(=O)c1oc2ccccc2c1NC(=O)/C(C#N)=C(/C)O", "melting point": "206 to 208"}
{"compound": "C=CC(C)=CC=CC(C)=CC(=O)OCC", "melting point": "52 to 53"}
{"compound": "COC(=S)NC[C@H]1CN(c2cc(F)c(N3CNC(=O)C3)c(F)c2)C(=O)O1", "melting point": 199}
{"compound": "O=C(Cc1cccnc1)c1ccc2c(c1)CCC2", "melting point": "55 to 56"}
{"compound": "O=c1cc(-c2ccncc2)nc2n1CC(O)CN2CCCc1ccccc1F", "note": "(centres undefined)", "melting point": "305 to 307"}
{"compound": "CON=CCCCn1c(C)nc2c(N)nc3ccccc3c21", "melting point": "153 to 155"}
{"compound": "CC1(C)COC(c2cc3c(O)cccc3o2)=N1", "melting point": "187 to 188"}
{"compound": "COc1ccc2c(c1)CC(C(=O)NCCOc1ccc(C(=O)O)cc1)N2S(=O)(=O)c1ccc(-c2ccc(F)cc2F)cc1", "note": "(centres undefined)", "melting point": 91}
{"compound": "Cc1ccc(-c2cc(CCCO)nn2-c2ccc(S(N)(=O)=O)cc2)cc1", "melting point": "123 to 126"}
{"compound": "CCCNC(=O)C1(CCCCc2ccc([N+](=O)[O-])cc2)c2ccccc2-c2ccccc21", "melting point": "109 to 110"}
{"compound": "COc1ccc(S(=O)(=O)n2c(CCCC(=O)O)cc3nc(Cl)ccc32)cc1", "melting point": 189}
{"compound": "CSC(C(=O)N1CCOCC1)c1cccc(C(=O)c2ccccc2)c1N", "note": "(centres undefined)", "melting point": "119 to 121"}
